Values quoted from earlier work, collected in patent US20100016828A1, “Drug Delivery System and Method” (priority 1995, published 2010).

What was measured:
[1] = tested on: blood-brain barrier; conditions: hyperosmolar saturated solution of 25% mannitol, intra-arterial infusion for approximately 30 seconds
[2] = intrathecal administration; at 1 hour
[3] = cat brain

For `OC[C@@H](O)[C@@H](O)[C@H](O)[C@H](O)CO` [mannitol], the “period of nonselective entry of substances into the CNS and tumor after blood-brain barrier disruption” value [1] is listed as “approximately 30 minutes”.
In the case of `CN(Cc1cnc2nc(N)nc(N)c2n1)c1ccc(C(=O)N[C@@H](CCC(=O)O)C(=O)O)cc1` [methotrexate], the “depth of penetration into parenchymal tissue” value [2] is listed as 3.2 mm.
In the case of `OC[C@H]1O[C@@](CO)(O[C@H]2O[C@H](CO)[C@@H](O)[C@H](O)[C@H]2O)[C@@H](O)[C@@H]1O` [sucrose], the “distribution into gray matter” value ([3]; after interstitial infusion) is given as “extensively distributed into gray matter by two hours” and the “spread in an anterior-posterior direction” value ([3]; two hour infusions, immediately after completion of the infusion) is given as “≈ 2.0 cm”.
For hematoporphyrin derivative [HpD], the “HpD uptake relative to normal brain tissue” value (glioblastomas) is listed as 30 times and the “HpD uptake relative to normal tissue” value (low-grade tumors) is listed as 8 times.
